Consider two compounds from patent US10233157B2, “SIK inhibitor for use in a method of treating an inflammatory and/or immune disorder” (Dana-Farber Cancer Institute, Inc., priority 2012, dated 2019).

Assay [1] deals with protein kinases that possess a threonine residue at the gatekeeper site (Src, Lck, Yes, BTK, FGF and Ephrin receptors). Put plainly: Kinase profiling, kinases with threonine at the gatekeeper site. As to conditions: kinase panel; 1 μM KIN112, 0.1 μM HG-9-91-01. Type of assay: biochemical. The protocol: Recombinant SIK1, SIK2, SIK3 were expressed as GST-fusion proteins in HEK293 cells and purified on a glutathione-Sepharose column. […] FLAG-CRTC3 was immunoprecipitated using anti-FLAG M2 agarose, washed in kinase buffer (50 mM Tris/HCl pH 7.4, 10 mM Mg acetate, 0.1 mM EGTA, 2 mM DTT) and reactions initiated by adding 4 U/ml recombinant kinase with 0.1 mM ATP (specific activity 3000 cpm/pmol). Phosphorylation of CRTC3 was monitored by autoradiography as well as immunoblotting using phosphospecific antibodies raised against Ser162, Ser329 and Ser370. […] Kinase profiling was performed as previously described (7) and performed by the International Centre for Kinase Profiling (www.kinase-screen.mrc.ac.uk).

A further assay concerns CRTC3. Put plainly: CRTC3 nuclear translocation (immunofluorescence, live imaging). Type of assay: cell-based. As to conditions: WT CRTC3. The text has this: FIGS. 15A to 15C. SIK inhibitors induce the dephosphorylation of CRTC3 at Ser62, Ser162, Ser329 and Ser370 and its translocation to the nucleus. (FIG. 15A) HEK293 cells were transfected with FLAG-CRTC2, FLAG-CRTC3 or FLG-CRTC3[S162A]. Aliquots of the cell extracts were subjected to SDS-PAGE and immunoblotting using an antibody that recognizes CRTC2 phosphorylated at Ser171. […] (FIG. 15B) HEK293 cells were transfected with FLAG-CRTC3, FLAG-CRTC3[S62A/S162A/S329A/S370A] (termed CRTC3-4A) or with empty vector (FLAG-ev). […]. (FIG. 15C) Inhibition of SIKs promotes the translocation of endogenous CRTC3 to the nucleus. […].
RAW264.7 cells were grown on glass coverslips and treated with inhibitors for 1 h. Cells were then fixed for 10 min in 3.7% paraformaldehyde, permeabilized for 5 min using 0.1% Triton X-100 in PBS and blocked for 45 min using 3% BSA in PBS. Cells were stained with anti-CRTC3 (Abcam 1:200) and anti-α-tubulin (Santa Cruz 1:500) followed by anti-rabbit-alexa488 and anti-mouse-alexa594 (Invitrogen 1:500), respectively. Antibodies were diluted in blocking buffer and incubated with the cells for 45 min. […] Images were recorded every 30 s for 1.5 min prior to the addition of drug after which cells were imaged for a further 60 min.

The test system of a further assay is LKB1−/− macrophages. Put plainly: Cytokine secretion in LKB1−/− macrophages. Type of assay: cell-based, mouse. The text has this:
FIGS. 9A to 9I. Genetic evidence using LKB1-deficient macrophages and a drug-resistant mutant of SIK2 to establish that inhibition of SIKs induces IL-10 production. (FIG. 9A) Loss of CRTC3 phosphorylation in LKB1−/− MEFs. (FIG. 9B) Enhanced IL-10 production and reduced secretion of pro-inflammatory cytokines in LysM-Cre-LKB1flox/flox macrophages (n=3, mean±SD). (FIG. 9C) Sequence alignment of AMPK-related kinases. The ‘gatekeeper’ site is indicated using an asterisk. (FIG. 9D) […] curves of KIN112 against different SIK2 mutants. […]. (FIG. 9F) Induction of HA-SIK2 (WT and [T96Q]) expression in RAW264.7 macrophages. […]. RAW264.7 cells were induced to express HA-SIK2-WT or HA-SIK2[T96]. As a further control, cells transduced with the empty vector and which only express endogenous SIK isoforms were also used. […]. […]. IL-10^−/− mice on a C57BL/6 background were purchased from The Jackson Laboratory, Maine, USA. LKB1^flox/flox mice on a C57BL/6 background were a generous gift from Alan Ashworth and were crossed with LysM-Cre mice to delete LKB1 in macrophages. Mice were bred at the University of Dundee under specific pathogen-free conditions in accordance with European Union regulations. Water supply for IL-10^−/− mice was supplemented with antibiotics to prevent the development of colitis. Work was approved by local ethical review and was performed with a UK Home Office project license. […]

Assay [2] has as its system Brain-Specific Kinases (BRSKs). Put plainly: Kinase assays, BRSKs. Type of assay: biochemical. As to conditions: in vitro.
In the next assay the test system is NUAK isoforms. The assay can be described thus: Kinase assays, NUAK isoforms. Type of assay: biochemical. The following applies: in vitro.
A further assay concerns STAT3. The assay can be described thus: Immunoblotting of STAT3 phosphorylation in LPS-stimulated macrophages. Type of assay: cell-based, mouse. As to the method:
FIGS. 2A to 2G. […] As in A except that cells were stimulated for 2 h with LPS.
Bone-marrow derived macrophages were differentiated for 7 days in DMEM supplemented with 5 ng/ml recombinant M-CSF (R&D systems), 2 mM glutamine, 10% foetal calf serum, penicillin and streptomycin.
Cells were rinsed in ice-cold PBS and extracted in lysis buffer (50 mM Tris/HCl pH 7.4, 1 mM EDTA, 1 mM EGTA, 50 mM NaF, 5 mM sodium pyrophosphate, 10 mM sodium α-glycerol 1-phosphate, 1 mM dithiothreitol, 1 mM sodium orthovanadate, 0.27 M sucrose, 1% (v/v) Triton X-100, 1 μg/ml aprotinin, 1 μg/ml leupeptin and 1 mM phenylmethylsulphonyl fluoride). Cell extracts were clarified by centrifugation at 14000×g for 10 min at 4° C. and protein concentrations determined using the Bradford assay. To detect proteins in cell lysates, 20 μg of protein extract was separated by SDS-PAGE. After transfer to PVDF membranes, proteins were detected by immunoblotting and visualized by treating the blots with ECL (Amersham) followed by autoradiography. The antibody recognizing CREB phosphorylated at Ser133 was from Cell Signalling Technology and the one detecting α-tubulin was obtained from Sigma.
In general terms: A western blot detects proteins with antibodies after separation by electrophoresis.

For another assay, the system named is LKB1−/− cells. Put plainly: CREB-dependent gene transcription in IL-1 stimulated LKB1+/+ and LKB1−/− MEFs. Type of assay: cell-based, mouse.

As for `COc1ccc(N(C(=O)Nc2c(C)cccc2C)c2cc(Nc3ccc(N4CCN(C)CC4)cc3)ncn2)c(OC)c1` [HG-9-91-01, 1-(2,4-dimethoxyphenyl)-3-(2,6-dimethylphenyl)-1-(6-((4-(4-methylpiperazin-1-yl)phenyl)amino)pyrimidin-4-yl)urea], the “inhibition of protein kinases with a threonine residue at the gatekeeper site” value in assay [1] was “inhibited”. In addition, the CRTC3 nuclear translocation entry in the assay on CRTC3 is “translocates to the nucleus”. Also, in the assay with LKB1−/− macrophages, the “IL-10, IL-12 and TNFα secretion in response to LPS” value is “unaffected”.
As to `O=C(NCCCNc1nc(Nc2cccc(CN3CCOCC3)c2)ncc1C1CC1)C1CCC1` [MRT67307], in assay [2], the “inhibition of BRSKs” value is recorded as “did not inhibit”. Moreover, the “inhibition of NUAK isoforms” value in the assay on NUAK isoforms is listed as “comparable potency to the IKK-related kinases”. Moreover, the “LPS-stimulated phosphorylation of STAT3” value in the assay on STAT3 (2 μM MRT67307) is listed as “increased”. Besides, the “phosphorylation of STAT3” value with STAT3 (LPS-stimulated macrophages from IL-10−/− mice, presence or absence of compound) is given as “no phosphorylation of STAT3 occurred”. Further, in the assay on LKB1−/− cells (LKB1+/+ cells), the CREB-dependent gene transcription entry is listed as “enhanced”. The “transcription of Nurr1 and Nurr77” value with LKB1−/− cells (LKB1−/− cells) is given as “only be increased to a small extent”.
